According to ChEMBL document CHEMBL1136624, “Synthesis and anticancer effect of chrysin derivatives” (Bioorg Med Chem Lett, 2003):

How the values were obtained:
HT-29 = experiment: In vitro inhibitory concentration required against human colorectal adenocarcinoma HT-29 cell line; type: functional, cell-based
SGC-7901 = experiment: In vitro inhibitory concentration required against human gastric adenocarcinoma SGC-7901 cell line; type: functional, cell-based

| SMILES | IC50 (HT-29) [µM] | IC50 (SGC-7901) [µM] |
| --- | --- | --- |
| COc1cc(O)c2c(=O)cc(-c3ccccc3)oc2c1Br | 1.9 | 2.5 |
| COc1cc(OC)c2c(=O)cc(-c3ccccc3)oc2c1C(F)(F)F | 2.3 | 5.9 |
| CC(=O)Oc1c(I)c(O)c2c(=O)cc(-c3ccccc3)oc2c1I | 3 | 4.2 |
| CC(=O)Oc1c(C(F)(F)F)c(O)c2c(=O)cc(-c3ccccc3)oc2c1C(F)(F)F | 2.9 | – |
| O=c1cc(-c2ccccc2)oc2c(I)c(O)c(I)c(O)c12 | 4.4 | 2.9 |
| COc1cc(OC)c2c(=O)cc(-c3ccccc3)oc2c1I | 2.6 | 2.2 |
| O=c1cc(-c2ccccc2)oc2c([N+](=O)[O-])c(O)cc(O)c12 | 2.3 | 2.8 |
| CC(=O)Oc1cc(O)c2c(=O)cc(-c3ccccc3)oc2c1 | 3.8 | 3.6 |
| COc1c([N+](=O)[O-])c(O)c2c(=O)cc(-c3ccccc3)oc2c1I | 2.3 | 6.4 |
| O=c1cc(-c2ccccc2)oc2c(Br)c(O)c(Br)c(O)c12 | 4 | 5.1 |
| CC(=O)Oc1cc(OC(C)=O)c2c(=O)cc(-c3ccccc3)oc2c1 [CHRYSIN DIACETATE] | 2.6 | 4.5 |
| COc1cc(OC)c2c(=O)cc(-c3ccccc3)oc2c1 [CHRYSIN DIMETHYL ETHER] | 2 | 3.7 |
| O=c1cc(-c2ccccc2)oc2cc(O)cc(O)c12 [CHRYSIN] | 3.1 | 5.8 |
